# What was measured:
# Ephrin type-A receptor 8 = Ephrin type-A receptor 8 (Homo sapiens, UniProt P29322); assay: Binding affinity to human wild type partial length EphA8 (Q608 to C920 residues) expressed in bacterial expression system by Kinomescan method
# [1] = target: Tyrosine-protein kinase Lck (Homo sapiens, UniProt P06239); assay: Binding affinity to wild-type human partial length LCK (R207 to P509 residues) expressed in bacterial expression system by Kinomescan method
# Ephrin type-B receptor 6 = target: T1, Ephrin type-B receptor 6 (Homo sapiens, UniProt O15197); assay: Binding affinity to human wild type partial length EphB6 (Q634 to P948 residues) expressed in mammalian expression system by Kinomescan method
# T1 sequence (O15197 whole entry): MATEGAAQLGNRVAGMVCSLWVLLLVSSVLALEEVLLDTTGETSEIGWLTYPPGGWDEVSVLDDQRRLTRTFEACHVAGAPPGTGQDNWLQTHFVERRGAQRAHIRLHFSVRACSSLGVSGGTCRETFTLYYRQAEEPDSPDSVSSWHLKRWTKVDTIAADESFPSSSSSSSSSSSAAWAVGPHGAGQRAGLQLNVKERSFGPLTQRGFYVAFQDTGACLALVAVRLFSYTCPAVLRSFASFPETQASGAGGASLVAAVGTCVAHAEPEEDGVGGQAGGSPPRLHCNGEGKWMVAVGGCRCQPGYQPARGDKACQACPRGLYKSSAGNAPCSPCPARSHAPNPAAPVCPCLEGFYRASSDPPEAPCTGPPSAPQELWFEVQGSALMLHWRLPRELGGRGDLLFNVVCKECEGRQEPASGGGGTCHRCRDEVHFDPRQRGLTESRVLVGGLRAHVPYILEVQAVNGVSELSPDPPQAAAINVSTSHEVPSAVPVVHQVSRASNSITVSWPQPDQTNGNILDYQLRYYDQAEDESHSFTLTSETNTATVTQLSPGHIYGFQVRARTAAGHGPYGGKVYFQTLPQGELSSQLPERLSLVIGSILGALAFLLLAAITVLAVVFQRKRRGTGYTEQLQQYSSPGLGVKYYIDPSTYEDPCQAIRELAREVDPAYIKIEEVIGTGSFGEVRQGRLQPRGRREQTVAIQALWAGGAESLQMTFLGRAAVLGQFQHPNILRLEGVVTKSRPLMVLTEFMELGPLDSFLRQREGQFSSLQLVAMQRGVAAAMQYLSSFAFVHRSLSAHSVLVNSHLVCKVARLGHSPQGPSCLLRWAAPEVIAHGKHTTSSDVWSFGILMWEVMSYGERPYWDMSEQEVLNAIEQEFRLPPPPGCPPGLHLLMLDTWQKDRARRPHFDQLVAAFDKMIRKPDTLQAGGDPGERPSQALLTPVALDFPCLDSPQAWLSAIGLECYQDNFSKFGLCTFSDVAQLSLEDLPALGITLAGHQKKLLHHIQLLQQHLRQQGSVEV
# [2] = target: Tyrosine-protein kinase TXK (Homo sapiens, UniProt P42681); assay: Binding affinity to wild-type human partial length TXK (L238 to W527 residues) expressed in bacterial expression system by Kinomescan method
# Ephrin type-A receptor 1 = Ephrin type-A receptor 1 (Homo sapiens, UniProt P21709); assay: Binding affinity to human wild type partial length EphA1 (V588 to I913 residues) expressed in bacterial expression system by Kinomescan method
# [3] = target: Serine/threonine-protein kinase NLK (Homo sapiens, UniProt Q9UBE8); assay: Binding affinity to wild-type human full length NLK expressed in bacterial expression system by Kinomescan method
# [4] = target: T2, Tyrosine-protein kinase ABL1 (Homo sapiens, UniProt P00519); assay: Binding affinity to human wild type partial length non-phosphorylated ABL1 (S229 to K512 residues) expressed in mammalian expression system by Kinomescan method
# [5] = target: T3, Cyclin-G-associated kinase (Homo sapiens, UniProt O14976); assay: Binding affinity to human wild type partial length GAK (G13 to Y338 residues) expressed in bacterial expression system by KinomeScan method
# T3 sequence (O14976 whole entry): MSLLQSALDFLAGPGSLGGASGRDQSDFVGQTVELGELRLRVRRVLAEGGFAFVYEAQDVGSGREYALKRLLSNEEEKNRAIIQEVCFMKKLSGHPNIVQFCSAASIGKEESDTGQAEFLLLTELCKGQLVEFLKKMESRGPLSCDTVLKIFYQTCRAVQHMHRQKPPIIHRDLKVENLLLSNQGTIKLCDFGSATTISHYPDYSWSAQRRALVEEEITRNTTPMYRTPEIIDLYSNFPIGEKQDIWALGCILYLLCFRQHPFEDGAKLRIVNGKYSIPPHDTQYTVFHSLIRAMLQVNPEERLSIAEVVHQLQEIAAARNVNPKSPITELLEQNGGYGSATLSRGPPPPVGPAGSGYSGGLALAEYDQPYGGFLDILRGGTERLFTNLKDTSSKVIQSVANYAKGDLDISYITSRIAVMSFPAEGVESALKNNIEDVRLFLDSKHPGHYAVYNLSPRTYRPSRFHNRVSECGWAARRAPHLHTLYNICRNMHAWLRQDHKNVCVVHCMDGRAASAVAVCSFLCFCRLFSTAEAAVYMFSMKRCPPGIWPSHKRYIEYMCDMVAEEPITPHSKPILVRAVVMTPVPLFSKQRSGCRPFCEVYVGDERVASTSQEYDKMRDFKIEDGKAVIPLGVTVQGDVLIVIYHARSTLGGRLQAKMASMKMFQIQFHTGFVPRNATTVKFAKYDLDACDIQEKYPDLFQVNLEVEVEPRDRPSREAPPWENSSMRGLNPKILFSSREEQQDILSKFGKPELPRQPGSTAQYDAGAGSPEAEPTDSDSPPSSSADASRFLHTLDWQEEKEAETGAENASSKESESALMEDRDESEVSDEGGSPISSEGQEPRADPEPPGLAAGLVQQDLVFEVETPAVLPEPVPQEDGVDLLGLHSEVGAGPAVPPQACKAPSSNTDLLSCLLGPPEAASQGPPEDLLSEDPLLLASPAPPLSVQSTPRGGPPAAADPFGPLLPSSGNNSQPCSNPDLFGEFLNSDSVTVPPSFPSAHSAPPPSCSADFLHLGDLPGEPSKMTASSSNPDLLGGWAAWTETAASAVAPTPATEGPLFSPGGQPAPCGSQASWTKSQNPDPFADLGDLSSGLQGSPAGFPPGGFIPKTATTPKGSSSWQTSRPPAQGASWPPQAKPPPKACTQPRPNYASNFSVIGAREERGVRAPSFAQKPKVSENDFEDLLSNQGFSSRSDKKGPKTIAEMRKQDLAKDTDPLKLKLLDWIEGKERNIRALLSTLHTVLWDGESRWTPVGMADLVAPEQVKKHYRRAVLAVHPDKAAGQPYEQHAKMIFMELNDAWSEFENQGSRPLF
# [6] = target: T3, Cyclin-G-associated kinase; assay: Inhibition of GAK (unknown origin) by in-cell pulse based assay
# [7] = target: RAF proto-oncogene serine/threonine-protein kinase (Homo sapiens) (UniProt P04049); assay: Inhibition of human wild type partial length C-Raf (I330 to T640 residues) expressed in bacterial expression system at 1 uM by Kinomescan method relative to control
# [8] = target: Atypical kinase COQ8A, mitochondrial (Homo sapiens, UniProt Q8NI60); assay: Binding affinity to human wild type full-length ADCK3 expressed in bacterial expression system by Kinomescan method
# Activin receptor type-1 = Activin receptor type-1 (Homo sapiens, UniProt Q04771); assay: Binding affinity to human wild type partial length ACVR1 (C188 to C509 residues) expressed in bacterial expression system by Kinomescan method
# [9] = target: Dual specificity mitogen-activated protein kinase kinase 5 (Homo sapiens, UniProt Q13163); assay: Binding affinity to human wild type partial length MEK5 (L98 to P448 residues) expressed in mammalian expression system by Kinomescan method
# [10] = target: T2, Tyrosine-protein kinase ABL1; assay: Binding affinity to human wild type partial length phosphorylated ABL1 (S229 to K512 residues) expressed in mammalian expression system by Kinomescan method
# [11] = target: Receptor-interacting serine/threonine-protein kinase 2 (Homo sapiens, UniProt O43353); assay: Binding affinity to wild-type human partial length RIPK2 (M1 to K310 residues) expressed in bacterial expression system by Kinomescan method
# [12] = target: Bone morphogenetic protein receptor type-1B (Homo sapiens, UniProt O00238); assay: Binding affinity to human wild type partial length BMPR1B (D178 to L502 residues) expressed in mammalian expression system by Kinomescan method
# [13] = target: Interleukin-1 receptor-associated kinase 3 (Homo sapiens, UniProt Q9Y616); assay: Binding affinity to human wild type partial length IRAK3 (V147 to E596 residues) expressed in bacterial expression system by Kinomescan method
# T2 sequence (P00519 whole entry, the tested form may be a part): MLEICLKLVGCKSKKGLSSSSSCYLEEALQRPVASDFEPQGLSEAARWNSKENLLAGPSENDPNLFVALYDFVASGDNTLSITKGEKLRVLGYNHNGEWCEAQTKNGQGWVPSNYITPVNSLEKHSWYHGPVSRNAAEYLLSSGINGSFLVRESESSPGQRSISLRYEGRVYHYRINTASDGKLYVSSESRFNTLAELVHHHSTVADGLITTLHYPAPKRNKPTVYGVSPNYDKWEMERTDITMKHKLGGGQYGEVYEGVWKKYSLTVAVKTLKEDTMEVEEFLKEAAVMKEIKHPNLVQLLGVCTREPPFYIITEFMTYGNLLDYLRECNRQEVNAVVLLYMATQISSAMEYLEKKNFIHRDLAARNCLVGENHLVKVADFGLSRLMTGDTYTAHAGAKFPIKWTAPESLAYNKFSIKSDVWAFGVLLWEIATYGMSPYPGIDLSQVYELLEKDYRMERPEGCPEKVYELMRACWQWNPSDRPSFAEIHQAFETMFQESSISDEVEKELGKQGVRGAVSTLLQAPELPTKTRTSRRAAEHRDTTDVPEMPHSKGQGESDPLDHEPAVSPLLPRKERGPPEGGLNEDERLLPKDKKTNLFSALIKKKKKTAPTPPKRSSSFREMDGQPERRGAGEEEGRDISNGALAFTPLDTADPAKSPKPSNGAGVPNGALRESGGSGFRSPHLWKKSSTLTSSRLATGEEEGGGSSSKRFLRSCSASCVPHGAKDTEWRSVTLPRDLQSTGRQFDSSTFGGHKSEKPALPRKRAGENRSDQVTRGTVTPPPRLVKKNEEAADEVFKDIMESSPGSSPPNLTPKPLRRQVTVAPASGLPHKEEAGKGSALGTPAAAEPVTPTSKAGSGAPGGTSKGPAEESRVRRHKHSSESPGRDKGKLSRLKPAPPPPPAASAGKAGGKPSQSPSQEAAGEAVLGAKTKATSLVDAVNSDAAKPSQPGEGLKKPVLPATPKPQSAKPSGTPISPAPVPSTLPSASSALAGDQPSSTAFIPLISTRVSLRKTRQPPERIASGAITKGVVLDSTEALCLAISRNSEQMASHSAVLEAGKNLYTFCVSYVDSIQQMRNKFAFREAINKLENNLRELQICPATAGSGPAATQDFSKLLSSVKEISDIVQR
# Ephrin type-A receptor 1, sequence (P21709 whole entry, the tested form may be a part): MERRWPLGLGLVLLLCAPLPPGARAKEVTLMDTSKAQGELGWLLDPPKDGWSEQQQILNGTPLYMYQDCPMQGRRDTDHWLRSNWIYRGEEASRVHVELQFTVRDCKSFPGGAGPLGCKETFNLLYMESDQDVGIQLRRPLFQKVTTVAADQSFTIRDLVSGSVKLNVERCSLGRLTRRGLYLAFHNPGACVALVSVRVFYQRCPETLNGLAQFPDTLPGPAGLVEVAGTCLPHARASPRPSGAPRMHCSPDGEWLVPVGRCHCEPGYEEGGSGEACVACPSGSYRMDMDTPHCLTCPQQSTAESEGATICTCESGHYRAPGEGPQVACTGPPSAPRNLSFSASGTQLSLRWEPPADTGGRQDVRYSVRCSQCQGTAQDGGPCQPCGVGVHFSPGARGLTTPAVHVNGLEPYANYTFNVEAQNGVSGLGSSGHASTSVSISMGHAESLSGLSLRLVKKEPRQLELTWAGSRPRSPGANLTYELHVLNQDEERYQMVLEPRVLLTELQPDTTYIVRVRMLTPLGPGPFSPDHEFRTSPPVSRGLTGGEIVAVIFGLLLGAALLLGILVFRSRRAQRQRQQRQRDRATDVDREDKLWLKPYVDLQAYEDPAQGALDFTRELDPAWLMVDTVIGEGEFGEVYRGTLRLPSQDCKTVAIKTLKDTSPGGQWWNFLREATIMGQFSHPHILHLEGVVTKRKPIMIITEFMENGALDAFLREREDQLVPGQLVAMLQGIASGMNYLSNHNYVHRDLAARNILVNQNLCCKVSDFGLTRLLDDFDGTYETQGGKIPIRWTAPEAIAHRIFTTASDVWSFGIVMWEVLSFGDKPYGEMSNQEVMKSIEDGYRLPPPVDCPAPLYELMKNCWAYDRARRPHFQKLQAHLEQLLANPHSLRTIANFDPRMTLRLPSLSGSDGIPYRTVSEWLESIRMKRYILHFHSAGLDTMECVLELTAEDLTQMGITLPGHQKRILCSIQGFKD
# Tyrosine-protein kinase Lck, sequence (P06239 whole entry, the tested form may be a part): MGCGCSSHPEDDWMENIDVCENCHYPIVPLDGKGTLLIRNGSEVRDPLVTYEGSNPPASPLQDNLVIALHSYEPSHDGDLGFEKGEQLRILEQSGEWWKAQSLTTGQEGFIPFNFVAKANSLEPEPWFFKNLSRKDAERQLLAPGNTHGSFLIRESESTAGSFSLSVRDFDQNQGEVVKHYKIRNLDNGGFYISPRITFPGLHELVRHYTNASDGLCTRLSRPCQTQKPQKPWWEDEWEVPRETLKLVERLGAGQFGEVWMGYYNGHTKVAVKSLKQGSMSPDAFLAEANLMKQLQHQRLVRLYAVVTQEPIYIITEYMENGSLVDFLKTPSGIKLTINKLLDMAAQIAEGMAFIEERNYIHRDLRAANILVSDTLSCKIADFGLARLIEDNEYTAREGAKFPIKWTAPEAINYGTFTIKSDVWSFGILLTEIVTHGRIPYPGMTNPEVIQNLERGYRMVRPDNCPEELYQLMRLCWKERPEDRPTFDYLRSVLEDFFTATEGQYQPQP
# Ephrin type-A receptor 8, sequence (P29322 whole entry, the tested form may be a part): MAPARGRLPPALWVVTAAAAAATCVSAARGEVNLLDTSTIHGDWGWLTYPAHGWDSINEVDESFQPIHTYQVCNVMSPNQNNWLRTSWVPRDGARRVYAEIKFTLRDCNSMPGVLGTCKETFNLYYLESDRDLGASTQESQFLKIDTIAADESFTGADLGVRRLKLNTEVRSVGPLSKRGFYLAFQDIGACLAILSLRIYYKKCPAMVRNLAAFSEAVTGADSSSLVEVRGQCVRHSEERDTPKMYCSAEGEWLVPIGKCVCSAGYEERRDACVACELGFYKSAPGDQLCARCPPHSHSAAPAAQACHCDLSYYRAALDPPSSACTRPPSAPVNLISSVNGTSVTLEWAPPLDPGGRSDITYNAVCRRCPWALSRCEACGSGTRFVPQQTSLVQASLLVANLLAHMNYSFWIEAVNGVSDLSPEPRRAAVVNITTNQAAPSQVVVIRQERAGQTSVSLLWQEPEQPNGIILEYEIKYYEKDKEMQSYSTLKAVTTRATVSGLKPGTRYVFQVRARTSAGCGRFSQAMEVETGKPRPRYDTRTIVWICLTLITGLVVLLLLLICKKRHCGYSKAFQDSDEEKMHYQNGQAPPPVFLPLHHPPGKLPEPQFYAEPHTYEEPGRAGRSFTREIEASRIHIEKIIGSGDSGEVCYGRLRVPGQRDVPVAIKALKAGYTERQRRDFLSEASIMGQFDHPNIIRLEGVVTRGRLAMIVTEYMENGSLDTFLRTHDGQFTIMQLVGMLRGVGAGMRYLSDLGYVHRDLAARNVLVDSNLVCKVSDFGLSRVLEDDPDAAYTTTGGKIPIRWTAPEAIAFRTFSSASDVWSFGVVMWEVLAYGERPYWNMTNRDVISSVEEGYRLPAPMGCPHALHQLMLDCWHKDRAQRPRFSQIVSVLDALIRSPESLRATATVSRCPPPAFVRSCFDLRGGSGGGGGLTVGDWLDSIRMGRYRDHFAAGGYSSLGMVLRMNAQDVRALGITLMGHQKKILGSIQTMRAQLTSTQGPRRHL
# Activin receptor type-1, sequence (Q04771 whole entry, the tested form may be a part): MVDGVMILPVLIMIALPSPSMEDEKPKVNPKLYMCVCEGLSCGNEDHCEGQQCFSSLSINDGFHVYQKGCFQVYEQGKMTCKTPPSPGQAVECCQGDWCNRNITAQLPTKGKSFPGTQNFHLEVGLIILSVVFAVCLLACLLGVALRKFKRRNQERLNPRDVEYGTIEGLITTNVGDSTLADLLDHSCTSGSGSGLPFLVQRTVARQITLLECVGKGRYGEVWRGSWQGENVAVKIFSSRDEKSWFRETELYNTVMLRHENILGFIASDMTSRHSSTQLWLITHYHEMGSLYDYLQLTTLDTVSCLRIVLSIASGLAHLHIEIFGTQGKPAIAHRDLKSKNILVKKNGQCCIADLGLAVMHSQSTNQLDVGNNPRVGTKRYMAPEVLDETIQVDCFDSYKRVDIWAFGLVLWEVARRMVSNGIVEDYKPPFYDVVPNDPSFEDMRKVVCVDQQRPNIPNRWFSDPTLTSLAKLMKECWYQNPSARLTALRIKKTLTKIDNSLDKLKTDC
# Dual specificity mitogen-activated protein kinase kinase 5, sequence (Q13163 whole entry, the tested form may be a part): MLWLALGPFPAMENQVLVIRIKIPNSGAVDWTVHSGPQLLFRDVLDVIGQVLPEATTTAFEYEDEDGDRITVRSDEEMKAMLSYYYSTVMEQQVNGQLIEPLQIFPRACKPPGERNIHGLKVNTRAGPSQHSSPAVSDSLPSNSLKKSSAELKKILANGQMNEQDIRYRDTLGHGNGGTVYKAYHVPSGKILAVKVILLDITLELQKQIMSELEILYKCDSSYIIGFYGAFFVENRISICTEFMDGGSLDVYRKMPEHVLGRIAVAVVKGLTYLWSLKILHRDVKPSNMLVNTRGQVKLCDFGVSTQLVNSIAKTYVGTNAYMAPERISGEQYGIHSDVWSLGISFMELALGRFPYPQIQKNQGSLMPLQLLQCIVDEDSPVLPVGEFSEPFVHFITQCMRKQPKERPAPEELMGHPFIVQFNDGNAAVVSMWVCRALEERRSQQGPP
smiles,measurement,setting,value
COc1cc(Nc2ccnc3ccc(C(F)(F)F)cc23)cc(OC)c1OC,Kd,Ephrin type-A receptor 8,1.1 µM
same,Kd,[1],1.1 µM
same,Kd,Ephrin type-B receptor 6,1.6 µM
same,Kd,[2],1.4 µM
same,Kd,Ephrin type-A receptor 1,3.1 µM
same,Kd,[3],0.69 µM
same,Kd,[4],1.9 µM
COc1ccc2nccc(Nc3cc(OC)c(OC)c(OC)c3)c2c1,Kd,[5],0.048 µM
COc1cc(Nc2cc(C)nc3ccc(C(F)(F)F)cc23)cc(OC)c1OC,Kd,[5],> 30 µM
same,IC50,[6],> 10 µM
COc1cc(Nc2ccnc3ccc(Cl)cc23)cc(OC)c1OC,Kd,[5],0.0063 µM
COc1ccc2c(Nc3cc(OC)c(OC)c(OC)c3)ccnc2c1,Kd,[5],0.035 µM
same,inhibition,[7],20%
COc1cc(Nc2ccnc3ccccc23)cc(OC)c1OC,Kd,[5],0.17 µM
COc1cc(Nc2ccnc3ccc(I)cc23)cc(OC)c1OC,Kd,[5],0.0086 µM
COc1cc(Nc2ccnc3ccc(Br)cc23)cc(OC)c1OC,Kd,[8],0.26 µM
same,Kd,Activin receptor type-1,1 µM
same,Kd,Ephrin type-B receptor 6,0.71 µM
same,Kd,[4],1.2 µM
COc1cc(Nc2ccnc3ccc(C(C)(C)C)cc23)cc(OC)c1OC,Kd,[5],0.034 µM
COc1cc2nccc(Nc3cc(OC)c(OC)c(OC)c3)c2cc1OC,Kd,Ephrin type-A receptor 8,0.56 µM
same,Kd,[9],0.43 µM
same,Kd,[5],0.011 µM
same,Kd,[1],0.35 µM
same,Kd,Activin receptor type-1,1.3 µM
same,Kd,Ephrin type-B receptor 6,0.13 µM
same,Kd,[10],0.092 µM
same,Kd,Ephrin type-A receptor 1,1.3 µM
same,Kd,[11],0.19 µM
same,Kd,[4],0.17 µM
same,Kd,[12],0.28 µM
COc1cc(N(C)c2ccnc3ccc(C(F)(F)F)cc23)cc(OC)c1OC,Kd,[13],0.48 µM
same,Kd,[5],9.9 µM
same,IC50,[6],> 10 µM
COc1cc(Nc2ncnc3ccc(C(F)(F)F)cc23)cc(OC)c1OC,Kd,[5],0.13 µM
COc1cc(Nc2ccnc3ccc(C#N)cc23)cc(OC)c1OC,Kd,[5],0.0049 µM
